Source: US12528815B2, “5-amino-8-(4-pyridyl)-[1,2,4]triazolo[4,3-c]pyrimidin-3-one compounds for use against cancer” (Nxera Pharma UK Limited, priority 2020, dated 2026)

Columns and labels:
[1] = biological target: T1, human adenosine A2A receptor (Homo sapiens, UniProt P29274); assay: Inhibition binding assay, human adenosine A2A receptor membranes, [3H]ZM241385; settings: 1 nM [3H]ZM241385, HEK293-hA2A membranes, 25° C., 1 h; IC50 converted to Ki with Cheng-Prusoff; read-out: A2A pKi (converted)
T1 construct: expressed in transfected cells; host or cells: HEK293 cells infected with BacMam
Outline: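 Membranes from BacMam-infected HEK293 cells (0.2 μg A2A, 1.4 μg A1) incubated 1 h at 25° C with test compound and 1 nM [3H]ZM241385 (A2A; 50 mM Tris-HCl pH 7.4) or [3H]DPCPX (A1; plus 100 mM NaCl, 10 mM MgCl2). Nonspecific: 1 μM CGS15943 or DPCPX. Filtration, scintillation; IC50 converted to Ki via Cheng-Prusoff.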

[2] = biological target: T2, human adenosine A1 receptor (Homo sapiens, UniProt P30542); assay: Inhibition binding assay, human adenosine A1 receptor membranes, [3H]DPCPX; settings: 1 nM [3H]DPCPX, 25° C., 1 h; IC50 converted to Ki with Cheng-Prusoff; read-out: A1 pKi (converted)
T2 construct: expressed in transfected cells; host or cells: HEK293 cells infected with BacMam (the same paragraph also labels the preparation CHO-hA1)
T2 sequence (P30542 1-326): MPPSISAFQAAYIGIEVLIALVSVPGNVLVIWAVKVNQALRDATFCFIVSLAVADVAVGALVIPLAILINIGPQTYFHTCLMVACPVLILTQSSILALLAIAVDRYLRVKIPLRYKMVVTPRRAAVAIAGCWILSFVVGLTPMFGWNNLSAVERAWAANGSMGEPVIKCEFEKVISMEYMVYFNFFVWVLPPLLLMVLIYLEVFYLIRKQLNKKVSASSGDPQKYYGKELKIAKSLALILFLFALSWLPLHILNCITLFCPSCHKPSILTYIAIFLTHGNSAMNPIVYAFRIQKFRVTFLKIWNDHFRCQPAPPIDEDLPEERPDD
Experimental: Inhibition binding assays were performed using 0.2 μg of membranes prepared from HEK293 cells infected with BacMam human adenosine A2A receptor or 1.4 μg of membranes prepared from HEK293 cells infected with BacMam human adenosine A1 receptor. Membranes were incubated in 50 mM Tris-HCl (HEK293-hA2A; pH 7.4) or 50 mM Tris-HCl, 100 mM NaCl, 10 mM MgCl2 (CHO-hA1; pH 7.4) in the presence of varying concentrations of test compound and 1 nM [^3H]ZM241385 (HEK293-hA2A) or [^3H]DPCPX (CHO-hA1) at 25° C. for 1 h. The assay was then terminated by rapid filtration onto GF/B grade Unifilter plates using a TomTec cell harvester, followed by 5×0.5 ml washes with ddH2O. Nonspecific binding was defined in the presence of 1 μM CGS15943 (HEK293-hA2A) or 1 μM DPCPX (CHO-hA1). Bound radioactivity was determined by liquid scintillation counting and inhibition curves were analysed using a four-parameter logistic equation. IC50 values were converted to Ki values with the Cheng-Prusoff equation using a KD value derived from saturation binding studies.

T1 sequence (P29274 whole entry): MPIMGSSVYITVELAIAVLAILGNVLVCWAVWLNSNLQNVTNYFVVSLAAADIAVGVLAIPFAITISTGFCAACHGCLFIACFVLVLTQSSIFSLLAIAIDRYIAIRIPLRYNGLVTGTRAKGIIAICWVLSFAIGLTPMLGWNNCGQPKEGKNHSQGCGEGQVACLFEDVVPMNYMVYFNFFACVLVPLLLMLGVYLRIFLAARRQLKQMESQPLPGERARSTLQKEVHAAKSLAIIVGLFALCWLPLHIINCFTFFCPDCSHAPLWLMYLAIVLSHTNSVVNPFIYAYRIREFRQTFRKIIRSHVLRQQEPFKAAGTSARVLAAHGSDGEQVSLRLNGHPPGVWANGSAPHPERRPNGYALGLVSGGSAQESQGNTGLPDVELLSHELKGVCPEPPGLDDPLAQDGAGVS

Work on Cc1cc(-c2c(-c3ccccc3)nc(N)n3c(=O)n(C[C@H]4COCCN4)nc23)cc(C)n1 [Example 2-76, 5-amino-8-(2,6-dimethyl-4-pyridyl)-2-[[(3S)-morpholin-3-yl]methyl]-7-phenyl-[1,2,4]triazolo[4,3-c]pyrimidin-3-one] yielded a Ki [1] of 15.8 nM and a Ki [2] of 631 nM.
Work on Cc1cc(-c2c(-c3ccccc3)nc(N)n3c(=O)n(CC4CCCOC4)nc23)cc(C)n1 (single isomer, unassigned) [Example 2-81-iso-2, 5-amino-8-(2,6-dimethyl-4-pyridyl)-7-phenyl-2-(tetrahydropyran-3-ylmethyl)-[1,2,4]triazolo[4,3-c]pyrimidin-3-one] yielded a Ki [1] of 1 nM and a Ki [2] of 126 nM.
Cc1cc(-c2c(-c3ccccc3)nc(N)n3c(=O)n(Cc4ccccc4C)nc23)cc(C)n1 [Example 1-17, 5-amino-8-(2,6-dimethyl-4-pyridyl)-2-(o-tolylmethyl)-7-phenyl-[1,2,4]triazolo[4,3-c]pyrimidin-3-one] was tested, and the Ki [1] was 0.316 nM and the Ki [2] was 1 nM.
COc1cc(-c2c(-c3ccccc3)nc(N)n3c(=O)n(Cc4ccc(F)cn4)nc23)cc(CO)n1 [Example 1-73, 5-amino-2-[(5-fluoro-2-pyridyl)methyl]-8-[2-(hydroxymethyl)-6-methoxy-4-pyridyl]-7-phenyl-[1,2,4]triazolo[4,3-c]pyrimidin-3-one] showed a Ki [1] of 2.51 nM and a Ki [2] of 398 nM.
Cc1cc(-c2c(-c3ccccc3)nc(N)n3c(=O)n(C(CN)c4c(F)cccc4F)nc23)cc(C)n1 (stereo not shown) [Example 1-34, 5-amino-2-(2-amino-1-(2,6-difluorophenyl)ethyl)-8-(2,6-dimethylpyridin-4-yl)-7-phenyl-[1,2,4]triazolo[4,3-c]pyrimidin-3(2H)-one] showed a Ki [1] of 1 nM and a Ki [2] of 100 nM.
Work on Cc1cc(-c2c(-c3ccccc3)nc(N)n3c(=O)n(Cc4ccc(F)cc4C)nc23)cc(C)n1 [Example 1-18, 5-amino-8-(2,6-dimethyl-4-pyridyl)-2-[(4-fluoro-2-methyl-phenyl)methyl]-7-phenyl-[1,2,4]triazolo[4,3-c]pyrimidin-3-one] yielded a Ki [1] of 0.0794 nM and a Ki [2] of 10 nM.
Cc1cc(-c2c(-c3ccccc3)nc(N)n3c(=O)n(CC4CCCOC4)nc23)cc(CO)n1 (single isomer, unassigned) [Example 2-92-iso-2, 5-amino-8-[2-(hydroxymethyl)-6-methyl-4-pyridyl]-7-phenyl-2-(tetrahydropyran-3-ylmethyl)-[1,2,4]triazolo[4,3-c]pyrimidin-3-one] was tested, and the Ki [1] was 1.26 nM and the Ki [2] was 316 nM.
Cc1cc(-c2c(-c3ccccc3)nc(N)n3c(=O)n(Cc4ccc(F)cn4)nc23)cc(O)n1 [Example 1-74, 5-amino-2-[(5-fluoro-2-pyridyl)methyl]-8-(2-hydroxy-6-methyl-4-pyridyl)-7-phenyl-[1,2,4]triazolo[4,3-c]pyrimidin-3-one] showed a Ki [1] of 316 nM and a Ki [2] of over 3160 nM.
For COC(=O)CCN1CCC(CCn2nc3c(-c4cc(C)nc(C)c4)c(-c4ccccc4)nc(N)n3c2=O)CC1 [Example 2-109, methyl 3-[4-[2-[5-amino-8-(2,6-dimethyl-4-pyridyl)-3-oxo-7-phenyl-[1,2,4]triazolo[4,3-c]pyrimidin-2-yl]ethyl]-1-piperidyl]propanoate], the Ki [1] was 20 nM and the Ki [2] was 398 nM.
Molecule Cc1cc(-c2c(-c3ccccc3)nc(N)n3c(=O)n(CCN4CCOCC4)nc23)cc(C)n1 [Example 2-99, 5-amino-8-(2,6-dimethyl-4-pyridyl)-2-(2-morpholinoethyl)-7-phenyl-[1,2,4]triazolo[4,3-c]pyrimidin-3-one] has a Ki [1] of 31.6 nM and a Ki [2] of 794 nM.
Cc1cc(-c2c(-c3ccccc3)nc(N)n3c(=O)n(Cc4ccccc4OCC4CC4)nc23)cc(C)n1 [Example 1-22, 5-amino-2-[[2-(cyclopropylmethoxy)phenyl]methyl]-8-(2,6-dimethyl-4-pyridyl)-7-phenyl-[1,2,4]triazolo[4,3-c]pyrimidin-3-one] showed a Ki [1] of 0.158 nM and a Ki [2] of 2 nM.
For C/C=C(/C)c1nc(N)n2c(=O)n(CCC(F)(F)F)nc2c1-c1cc(C)nc(C)c1 [Example 3-9, 5-amino-8-(2,6-dimethyl-4-pyridyl)-7-[(Z)-1-methylprop-1-enyl]-2-(3,3,3-trifluoropropyl)-[1,2,4]triazolo[4,3-c]pyrimidin-3-one], the Ki [1] was 398 nM and the Ki [2] was over 3160 nM.
Cc1cc(-c2c(-c3ccccc3)nc(N)n3c(=O)n(CC(C)C)nc23)cc(C)n1 [Example 2-21, 5-amino-8-(2,6-dimethyl-4-pyridyl)-2-isobutyl-7-phenyl-[1,2,4]triazolo[4,3-c]pyrimidin-3-one] gave a Ki [1] of 2.51 nM and a Ki [2] of 1000 nM.
For CCOC(=O)NCCn1nc2c(-c3cc(C)nc(C)c3)c(-c3ccccc3)nc(N)n2c1=O [Example 2-12, ethyl N-[2-[5-amino-8-(2,6-dimethyl-4-pyridyl)-3-oxo-7-phenyl-[1,2,4]triazolo[4,3-c]pyrimidin-2-yl]ethyl]carbamate], the Ki [1] was 10 nM and the Ki [2] was 501 nM.
COc1cc(-c2c(-c3ccccc3)nc(N)n3c(=O)n(Cc4ccc(F)cn4)nc23)cc(C)n1 [Example 1-78, 5-amino-2-[(5-fluoro-2-pyridyl)methyl]-8-(2-methoxy-6-methyl-4-pyridyl)-7-phenyl-[1,2,4]triazolo[4,3-c]pyrimidin-3-one] was tested, and the Ki [1] was 0.126 nM and the Ki [2] was 158 nM.
In the case of Cc1cc(-c2c(-c3ccccc3)nc(N)n3c(=O)n(C(C)c4ccccn4)nc23)cc(C)n1 (stereo not shown) [Example 1-20, 5-amino-8-(2,6-dimethyl-4-pyridyl)-7-phenyl-2-[1-(2-pyridyl)ethyl]-[1,2,4]triazolo[4,3-c]pyrimidin-3-one], the Ki [1] was 12.6 nM and the Ki [2] was 316 nM.
For CCC(c1ccc(F)cn1)n1nc2c(-c3cc(C)nc(CO)c3)c(-c3ccccc3)nc(N)n2c1=O (single isomer, unassigned) [1-46 iso-1, 5-amino-2-[1-(5-fluoro-2-pyridyl)propyl]-8-[2-(hydroxymethyl)-6-methyl-4-pyridyl]-7-phenyl-[1,2,4]triazolo[4,3-c]pyrimidin-3-one], the Ki [1] was 398 nM and the Ki [2] was over 3160 nM.
Cc1cc(-c2c(-c3ccccc3)nc(N)n3c(=O)n(CC4CCCCO4)nc23)cc(C)n1 (single isomer, unassigned) [Example 2-82-iso-1, 5-amino-8-(2,6-dimethyl-4-pyridyl)-7-phenyl-2-(tetrahydropyran-2-ylmethyl)-[1,2,4]triazolo[4,3-c]pyrimidin-3-one] was tested, and the Ki [1] was 1.58 nM and the Ki [2] was 126 nM.
Cc1cc(-c2c(-c3ccncc3)nc(N)n3c(=O)n(CCC(F)(F)F)nc23)cc(C)n1 [Example 2-38, 5-amino-8-(2,6-dimethyl-4-pyridyl)-7-(4-pyridyl)-2-(3,3,3-trifluoropropyl)-[1,2,4]triazolo[4,3-c]pyrimidin-3-one] was tested, and the Ki [1] was 39.8 nM and the Ki [2] was over 3980 nM.
COC(=O)c1nc(N)n2c(=O)n(CCC(F)(F)F)nc2c1-c1cc(C)nc(C)c1 [Example 3-6, methyl 5-amino-8-(2,6-dimethyl-4-pyridyl)-3-oxo-2-(3,3,3-trifluoropropyl)-[1,2,4]triazolo[4,3-c]pyrimidine-7-carboxylate] showed a Ki [1] of 200 nM and a Ki [2] of over 3160 nM.
CCC(c1ccc(F)cn1)n1nc2c(-c3cc(C)nc(C)c3)c(-c3ccccc3)nc(N)n2c1=O (single isomer, unassigned) [1-38 iso-1, 5-amino-8-(2,6-dimethyl-4-pyridyl)-2-[1-(5-fluoro-2-pyridyl)propyl]-7-phenyl-[1,2,4]triazolo[4,3-c]pyrimidin-3-one] was tested, and the Ki [1] was 63.1 nM and the Ki [2] was 501 nM.
Cc1cc(-c2c(-c3ccccc3)nc(N)n3c(=O)n(CC4CCCCO4)nc23)cc(C)n1 (stereo not shown) [Example 2-82, 5-amino-8-(2,6-dimethyl-4-pyridyl)-7-phenyl-2-(tetrahydropyran-2-ylmethyl)-[1,2,4]triazolo[4,3-c]pyrimidin-3-one] showed a Ki [1] of 0.316 nM and a Ki [2] of 251 nM.
Cc1cc(-c2c(-c3ccccc3)nc(N)n3c(=O)n(Cc4ccc(F)cn4)nc23)cc(Cl)n1 [Example 1-76, 5-amino-8-(2-chloro-6-methyl-4-pyridyl)-2-[(5-fluoro-2-pyridyl)methyl]-7-phenyl-[1,2,4]triazolo[4,3-c]pyrimidin-3-one] gave a Ki [1] of 0.126 nM and a Ki [2] of 79.4 nM.
